# Assay results from patent US20240368135A1 (VERTEX PHARMACEUTICALS INCORPORATED, priority 2021, published 2024).
# Where two headings read alike, the source gives them in different places.
# Target: human NaV 1.8 (Homo sapiens, UniProt Q9Y5Y9)
# Test: E-VIPR assay detecting and measuring NaV inhibition properties
# Assay type: cell-based
# Settings: HEK cells expressing truncated human NaV 1.8
# In short: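 Membrane potential was followed by coumarin/oxonol FRET during electrical field stimulation of matrigel-seeded HEK cells carrying truncated human NaV1.8 plus KIR2.1. Dosing used 11 points, 3-fold steps, top 300 nM final, 0.625% DMSO, with or without 25% human serum.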
# [1] = no human serum, read-out: IC50 in the E-VIPR Assay
# [2] = in the presence of human serum (compound numbers followed by *), read-out: IC50 in the E-VIPR Assay, performed in the presence of human serum
# human NaV 1.8, sequence (Q9Y5Y9 126-399 limits assumed): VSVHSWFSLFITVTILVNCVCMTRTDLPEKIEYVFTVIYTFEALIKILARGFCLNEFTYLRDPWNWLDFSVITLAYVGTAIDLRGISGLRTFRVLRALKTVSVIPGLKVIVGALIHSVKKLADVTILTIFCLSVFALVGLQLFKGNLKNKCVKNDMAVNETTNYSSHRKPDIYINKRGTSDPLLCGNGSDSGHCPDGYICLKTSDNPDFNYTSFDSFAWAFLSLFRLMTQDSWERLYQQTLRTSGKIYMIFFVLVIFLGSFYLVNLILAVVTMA
# human NaV 1.8, sequence (Q9Y5Y9 660-890 limits assumed): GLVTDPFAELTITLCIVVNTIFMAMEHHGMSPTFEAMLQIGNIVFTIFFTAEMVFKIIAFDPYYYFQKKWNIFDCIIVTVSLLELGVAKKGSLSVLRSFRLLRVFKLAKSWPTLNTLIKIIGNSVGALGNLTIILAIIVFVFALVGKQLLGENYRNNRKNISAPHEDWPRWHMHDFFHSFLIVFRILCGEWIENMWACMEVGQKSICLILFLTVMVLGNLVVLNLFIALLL
# human NaV 1.8, sequence (Q9Y5Y9 1148-1722 limits assumed): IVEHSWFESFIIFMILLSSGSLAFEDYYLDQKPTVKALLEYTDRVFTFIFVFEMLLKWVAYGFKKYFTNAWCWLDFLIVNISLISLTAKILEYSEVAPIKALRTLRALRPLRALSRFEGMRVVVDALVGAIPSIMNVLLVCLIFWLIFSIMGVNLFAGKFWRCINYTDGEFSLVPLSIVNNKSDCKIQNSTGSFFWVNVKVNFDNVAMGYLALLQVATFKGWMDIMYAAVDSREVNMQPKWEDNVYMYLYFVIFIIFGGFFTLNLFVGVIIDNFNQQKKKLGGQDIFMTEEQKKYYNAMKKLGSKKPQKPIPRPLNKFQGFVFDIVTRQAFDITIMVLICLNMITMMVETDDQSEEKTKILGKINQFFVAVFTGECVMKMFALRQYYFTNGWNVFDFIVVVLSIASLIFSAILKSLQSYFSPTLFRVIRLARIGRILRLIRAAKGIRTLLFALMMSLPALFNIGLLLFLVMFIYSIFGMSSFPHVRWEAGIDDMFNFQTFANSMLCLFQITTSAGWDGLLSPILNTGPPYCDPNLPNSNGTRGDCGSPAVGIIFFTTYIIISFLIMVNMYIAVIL
Compound,IC50 [1] [nM],IC50 [2] [nM]
"COc1c([C@H]2[C@H](C(=O)Nc3ccnc(N4CC(N(C)C)CC4=O)c3)O[C@@](C)(C(F)(F)F)[C@H]2C)ccc(F)c1F (single isomer, unassigned) [Compound 505, rel-(2R*,3S*,4S*,5R*)-3-(3,4-difluoro-2-methoxyphenyl)-N-(2-(4-(dimethylamino)-2-oxopyrrolidin-1-yl)pyridin-4-yl)-4,5-dimethyl-5-(trifluoromethyl)tetrahydrofuran-2-carboxamide]",10 to 100,–
"COc1c([C@H]2[C@H](C(=O)Nc3ccnc(N4CCC(N(C)C)C4=O)c3)O[C@@](C)(C(F)(F)F)[C@H]2C)ccc(F)c1F (single isomer, unassigned) [Compound 507, rel-(2R*,3S*,4S*,5R*)-3-(3,4-difluoro-2-methoxyphenyl)-N-(2-(3-(dimethylamino)-2-oxopyrrolidin-1-yl)pyridin-4-yl)-4,5-dimethyl-5-(trifluoromethyl)tetrahydrofuran-2-carboxamide]",10 to 100,–
"COc1c([C@H]2[C@H](C(=O)Nc3ccnc(N4C[C@H]5C[C@@H](C4=O)N5C)c3)O[C@@](C)(C(F)(F)F)[C@H]2C)ccc(F)c1F (single isomer, unassigned) [Compound 509, rel-(2R*,3S*,4S*,5R*)-3-(3,4-difluoro-2-methoxyphenyl)-4,5-dimethyl-N-(2-((1S,5R)-6-methyl-2-oxo-3,6-diazabicyclo[3.1.1]heptan-3-yl)pyridin-4-yl)-5-(trifluoromethyl)tetrahydrofuran-2-carboxamide]",10 to 100,–
"COc1c([C@H]2[C@H](C(=O)Nc3ccnc(N4C[C@@H]5C[C@H](C4=O)N5C)c3)O[C@@](C)(C(F)(F)F)[C@H]2C)ccc(F)c1F (single isomer, unassigned) [Compound 510, rel-(2R*,3S*,4S*,5R*)-3-(3,4-difluoro-2-methoxyphenyl)-4,5-dimethyl-N-(2-((1R,5S)-6-methyl-2-oxo-3,6-diazabicyclo[3.1.1]heptan-3-yl)pyridin-4-yl)-5-(trifluoromethyl)tetrahydrofuran-2-carboxamide]",10 to 100,–
"CN=S(C)(=O)c1cc(NC(=O)C2OC(C)(C(F)(F)F)C(C)C2c2ccc(F)c(F)c2OC)ccn1 (single isomer, unassigned) [Compound 529, 3-(3,4-difluoro-2-methoxy-phenyl)-N-[2-(N,S-dimethylsulfonimidoyl)-4-pyridyl]-4,5-dimethyl-5-(trifluoromethyl)tetrahydrofuran-2-carboxamide]",100 to 1000,–
"CN=S(C)(=O)c1cc(NC(=O)C2OC(C)(C(F)(F)F)C(C)C2c2ccc(F)c(F)c2OC)ccn1 (single isomer, unassigned) [Compound 530, 3-(3,4-difluoro-2-methoxy-phenyl)-N-[2-(N,S-dimethylsulfonimidoyl)-4-pyridyl]-4,5-dimethyl-5-(trifluoromethyl)tetrahydrofuran-2-carboxamide]",< 10,–
"COc1c([C@@H]2[C@@H](C(=O)Nc3ccnc(C(C)O)c3)O[C@](C)(C(F)(F)F)[C@@H]2C)ccc(F)c1F (single isomer, unassigned) [Compound 531]",–,≥ 1000
"COc1c([C@H]2[C@H](C(=O)Nc3ccnc(C(C)O)c3)O[C@@](C)(C(F)(F)F)[C@H]2C)ccc(F)c1F (single isomer, unassigned) [Compound 532]",< 10,–
"COCC(O)c1cc(NC(=O)[C@@H]2O[C@@](C)(C(F)(F)F)[C@@H](C)[C@H]2c2ccc(F)c(F)c2OCCN2CCOCC2)ccn1 (single isomer, unassigned) [Compound 595]",10 to 100,–
"COCC(O)c1cc(NC(=O)[C@@H]2O[C@@](C)(C(F)(F)F)[C@@H](C)[C@H]2c2ccc(F)c(F)c2OCCN2CC(F)C2)ccn1 (single isomer, unassigned) [Compound 608, rel-(2R*,3S*,4S*,5R*)-3-(3,4-difluoro-2-(2-(3-fluoroazetidin-1-yl)ethoxy)phenyl)-N-(2-(1-hydroxy-2-methoxyethyl)pyridin-4-yl)-4,5-dimethyl-5-(trifluoromethyl)tetrahydrofuran-2-carboxamide]",10 to 100,–
"COCC(O)c1cc(NC(=O)[C@@H]2O[C@@](C)(C(F)(F)F)[C@@H](C)[C@H]2c2ccc(F)c(F)c2OCCN2CC3CC(C2)O3)ccn1 (single isomer, unassigned) [Compound 610, rel-(2R*,3S*,4S*,5R*)-3-(2-(2-(6-oxa-3-azabicyclo[3.1.1]heptan-3-yl)ethoxy)-3,4-difluorophenyl)-N-(2-(1-hydroxy-2-methoxyethyl)pyridin-4-yl)-4,5-dimethyl-5-(trifluoromethyl)tetrahydrofuran-2-carboxamide]",10 to 100,–
"COc1c([C@@H]2C[C@](C)(C(F)(F)F)O[C@H]2C(=O)Nc2cc(C(O)CO)ncc2F)ccc(F)c1F (single isomer, unassigned) [Compound 689]",–,100 to 1000
"COc1c([C@H]2C[C@@](C)(C(F)(F)F)O[C@@H]2C(=O)Nc2cc(C(O)CO)ncc2F)ccc(F)c1F (single isomer, unassigned) [Compound 690]",–,≥ 1000
"COc1c([C@@H]2C[C@](C)(C(F)(F)F)O[C@H]2C(=O)Nc2ccnc(C(C)(O)CO)c2)ccc(F)c1F (single isomer, unassigned) [Compound 701]",10 to 100,–
"COc1c([C@H]2C[C@@](C)(C(F)(F)F)O[C@@H]2C(=O)Nc2ccnc([C@H](O)CO)c2)ccc(F)c1C (single isomer, unassigned) [Compound 703]",–,≥ 1000
"CCOc1c([C@H]2C[C@@](C)(C(F)(F)F)O[C@@H]2C(=O)Nc2ccnc(C(O)CO)c2)ccc(F)c1F (single isomer, unassigned) [Compound 709]",–,≥ 1000
"CCOc1c([C@@H]2C[C@](C)(C(F)(F)F)O[C@H]2C(=O)Nc2ccnc(C(O)CO)c2)ccc(F)c1F (single isomer, unassigned) [Compound 710]",10 to 100,–
"COc1c(C2C(C(=O)Nc3ccnc(C(O)CO)c3)OC(C)(C)C2C)ccc(F)c1F (single isomer, unassigned) [Compound 722, rel-3-(3,4-difluoro-2-methoxyphenyl)-N-(2-(1,2-dihydroxyethyl)pyridin-4-yl)-4,5,5-trimethyltetrahydrofuran-2-carboxamide]",–,≥ 1000
"COc1c(C2C(C(=O)Nc3ccnc(C(C)(O)CO)c3)OC(C)(C)C2C)ccc(F)c1F (single isomer, unassigned) [Compound 725, rel-3-(3,4-difluoro-2-methoxyphenyl)-N-(2-(1,2-dihydroxypropan-2-yl)pyridin-4-yl)-4,5,5-trimethyltetrahydrofuran-2-carboxamide]",–,≥ 1000
"COc1c([C@H]2[C@H](C(=O)Nc3ccnc(C(C)(O)CO)c3)OC(C)(C)[C@H]2C)ccc(F)c1F (single isomer, unassigned) [Compound 731]",100 to 1000,–
"COc1c([C@H]2[C@H](C(=O)Nc3ccnc(C(C)(O)CO)c3)OC(C)(C)[C@H]2C)ccc(F)c1F (single isomer, unassigned) [Compound 732]",10 to 100,–
"CCOc1c([C@@H]2[C@@H](C(=O)Nc3ccnc(S(C)(=O)=O)c3)O[C@](C)(C(F)(F)F)[C@@H]2C)ccc(F)c1F (stereo in doubt) [Compound 4, rel-(2S,3R,4R,5S)-3-(2-ethoxy-3,4-difluorophenyl)-4,5-dimethyl-N-(2-(methylsulfonyl)pyridin-4-yl)-5-(trifluoromethyl)tetrahydrofuran-2-carboxamide]",≥ 1000,–
"C[C@@H]1[C@H](c2ccc(F)c(F)c2OC(F)F)[C@@H](C(=O)Nc2ccnnc2)O[C@]1(C)C(F)(F)F (stereo in doubt) [Compound 63, rel-(2S,3R,4R,5S)-3-(2-(difluoromethoxy)-3,4-difluorophenyl)-4,5-dimethyl-N-(pyridazin-4-yl)-5-(trifluoromethyl)tetrahydrofuran-2-carboxamide]",–,≥ 1000

# Results, then the compound that gave them:
IC50 [1] [nM],IC50 [2] [nM],Compound
–,10 to 100,"COc1c([C@@H]2C[C@](C)(C(F)(F)F)O[C@H]2C(=O)Nc2ccnc(C(O)CO)c2)ccc(F)c1F (single isomer, unassigned) [Compound 685]"
–,≥ 1000,"COc1c([C@H]2C[C@@](C)(C(F)(F)F)O[C@@H]2C(=O)Nc2ccnc(C(O)CO)c2)ccc(F)c1F (single isomer, unassigned) [Compound 686]"
–,≥ 1000,"COc1c(C2CC(C)(C(F)(F)F)OC2C(=O)Nc2ccnc(C(O)C(C)O)c2)ccc(F)c1F (single isomer, unassigned) [Compound 693]"
–,10 to 100,"COc1c(C2CC(C)(C(F)(F)F)OC2C(=O)Nc2ccnc(C(O)C(C)O)c2)ccc(F)c1F (single isomer, unassigned) [Compound 694]"
–,≥ 1000,"COc1c(C2CC(C)(C(F)(F)F)OC2C(=O)Nc2ccnc(C(O)C(C)O)c2)ccc(F)c1F (single isomer, unassigned) [Compound 695]"
–,10 to 100,"COc1c(C2CC(C)(C(F)(F)F)OC2C(=O)Nc2ccnc(C(O)C(C)O)c2)ccc(F)c1F (single isomer, unassigned) [Compound 696]"
–,≥ 1000,"COc1c(C2CC(C)(C(F)(F)F)OC2C(=O)Nc2ccnc(C(O)C(C)O)c2)ccc(F)c1F (single isomer, unassigned) [Compound 697]"
10 to 100,–,"COc1c([C@@H]2C[C@](C)(C(F)(F)F)O[C@H]2C(=O)Nc2ccnc([C@H](O)CO)c2)ccc(F)c1C (single isomer, unassigned) [Compound 704]"
–,≥ 1000,"COc1c([C@H]2C[C@@](C)(C(F)(F)F)O[C@@H]2C(=O)Nc2ccnc(C(O)CO)c2)ccc(F)c1C (single isomer, unassigned) [Compound 705]"
10 to 100,–,"COc1c([C@@H]2C[C@](C)(C(F)(F)F)O[C@H]2C(=O)Nc2ccnc([C@@H](O)CO)c2)ccc(F)c1C (single isomer, unassigned) [Compound 706]"
